Laboratory results published in ChEMBL document CHEMBL3886554, “Ring-fused bicyclic pyridyl derivatives as FGFR4 inhibitors” (2016).

Target: Fibroblast growth factor receptor 4 (Homo sapiens, UniProt P22455)
Assay: Biochemical Kinase Assay: Liquid handling and incubation steps were done on an Innovadyne Nanodrop Express equipped with a robotic arm (Thermo CatX, Caliper Twister II) and an incubator (Liconic STX40, Thermo Cytomat 2C450). The assay plates were prepared by addition of 50 nl per well of compound solution in 90% DMSO. The kinase reactions were started by stepwise addition of 4.5 ul per well of …

Fibroblast growth factor receptor 4, sequence (P22455 whole entry): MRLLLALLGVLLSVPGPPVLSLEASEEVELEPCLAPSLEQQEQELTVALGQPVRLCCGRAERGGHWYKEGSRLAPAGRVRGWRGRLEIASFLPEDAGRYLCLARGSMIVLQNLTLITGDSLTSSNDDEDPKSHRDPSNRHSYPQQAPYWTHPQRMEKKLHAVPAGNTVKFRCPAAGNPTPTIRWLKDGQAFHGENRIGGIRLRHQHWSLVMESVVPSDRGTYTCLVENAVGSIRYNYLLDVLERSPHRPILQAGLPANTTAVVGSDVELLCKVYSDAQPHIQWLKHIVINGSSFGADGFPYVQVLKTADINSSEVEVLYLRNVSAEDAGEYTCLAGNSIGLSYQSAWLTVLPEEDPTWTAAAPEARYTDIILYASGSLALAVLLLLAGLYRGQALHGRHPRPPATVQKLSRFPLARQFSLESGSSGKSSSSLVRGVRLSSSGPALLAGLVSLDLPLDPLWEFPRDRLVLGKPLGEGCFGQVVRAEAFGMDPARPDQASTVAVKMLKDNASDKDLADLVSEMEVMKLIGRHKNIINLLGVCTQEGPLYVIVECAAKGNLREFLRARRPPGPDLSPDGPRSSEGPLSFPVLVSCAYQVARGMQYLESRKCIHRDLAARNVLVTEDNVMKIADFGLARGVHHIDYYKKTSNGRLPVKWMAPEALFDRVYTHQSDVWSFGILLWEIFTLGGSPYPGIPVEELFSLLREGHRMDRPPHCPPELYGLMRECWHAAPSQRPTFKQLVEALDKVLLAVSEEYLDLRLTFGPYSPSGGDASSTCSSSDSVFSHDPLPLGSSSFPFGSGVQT

Question: With `CC(C)Oc1cc(NC(=O)N2CCCc3cc(CN(C)C(=O)CO)c(C=O)nc32)ncc1C#N` as the compound, how does the IC50 read?
Answer: Its IC50 is 0.3 nM.
